Assay results reported in patent US20060069132A1, “Azolecarboxamide herbicides” (priority 2004, published 2006).

Columns and labels:
lambsquarters = assay: Test B pre-/postemergence herbicide test; type: in vivo, Chenopodium album; conditions: for Plant response rating, Lambsquarters: preemergence; for Lambsquarters plant response rating: postemergence, visual rating, scale 0 (no effect) to 100 (complete control)
Method in brief: (§1)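 Plants compared with untreated controls 13–15 days post-treatment and given a visual 0–100 injury score. Applications: preemergence to seeds; postemergence at 1- to 4-leaf (2–18 cm); paddy species flooded, 2-leaf stage. Vehicle non-phytotoxic, surfactant included.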

[1] = system: small flower umbrella sedge; assay: Test B flooded paddy test; type: in vivo, Cyperus difformis; conditions: 1000 g ai/ha, visual rating, scale 0 to 100 (0 no effect, 100 complete control), 13 to 15 days
Method in brief: (§2)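 Each value is a visual 0–100 response rating taken against controls 13 to 15 days after treatment in the greenhouse. Plants received formulated chemical postemergence at the 1- to 4-leaf stage or, in flooded paddy, at the 2-leaf stage.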

wild oat = assay: Test B postemergence herbicide test; type: in vivo, Avena fatua; conditions: postemergence, visual rating, scale 0 (no effect) to 100 (complete control)
Method in brief: (§3)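 Scale 0–100: zero equals no visible effect, 100 complete control, judged by eye relative to controls. Timing: 13 to 15 days in greenhouse post-treatment. Growth stage at spraying: two leaves (paddy) or one to four leaves, 2–18 cm (postemergence).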

corn = assay: Test B pre-/postemergence herbicide test; type: in vivo, Zea mays; conditions: for Plant response rating, Corn: preemergence; for Corn plant response rating: postemergence, visual rating, scale 0 (no effect) to 100 (complete control)
Method in brief: as §1

large crabgrass = assay: Test B pre-/postemergence herbicide test; type: in vivo, Digitaria sanguinalis; conditions: for Plant response rating, Crabgrass, Large: preemergence; for Crabgrass, Large plant response rating: postemergence, visual rating, scale 0 (no effect) to 100 (complete control)
Method in brief: as §1

velvetleaf = assay: Test B pre-/postemergence herbicide test; type: in vivo, Abutilon theophrasti; conditions: for Plant response rating, Velvetleaf: preemergence; for Velvetleaf plant response rating: postemergence, visual rating, scale 0 (no effect) to 100 (complete control)
Method in brief: as §1

giant foxtail = assay: Test B pre-/postemergence herbicide test; type: in vivo, Setaria faberi; conditions: for Plant response rating, Foxtail, Giant: preemergence; for Foxtail, Giant plant response rating: postemergence, visual rating, scale 0 (no effect) to 100 (complete control)
Method in brief: as §1

morningglory = assay: Test B pre-/postemergence herbicide test; type: in vivo, Ipomoea coccinea; conditions: for Plant response rating, Morningglory: preemergence; for Morningglory plant response rating: postemergence, visual rating, scale 0 (no effect) to 100 (complete control)
Method in brief: (§4)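 Evaluation is visual, comparing treated with control plants on a scale where 0 means no effect and 100 means full control. Treatments were preemergence, or postemergence on seedlings 2–18 cm tall, and held 13–15 days in the greenhouse.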

ducksalad = assay: Test B flooded paddy test; type: in vivo, Heteranthera limosa; conditions: 1000 g ai/ha, visual rating, scale 0 to 100 (0 no effect, 100 complete control), 13 to 15 days
Method in brief: as §2

barnyardgrass [2] = assay: Test B flooded paddy test; type: in vivo, Echinochloa crus-galli; conditions: 1000 g ai/ha, visual rating, scale 0 to 100 (0 no effect, 100 complete control), 13 to 15 days
Method in brief: as §2

Surinam grass = assay: Test B pre-/postemergence herbicide test; type: in vivo, Urochloa decumbens; conditions: for Plant response rating, Surinam Grass: preemergence; for Surinam Grass plant response rating: postemergence, visual rating, scale 0 (no effect) to 100 (complete control)
Method in brief: as §1

blackgrass = assay: Test B postemergence herbicide test; type: in vivo, Alopecurus myosuroides; conditions: postemergence, visual rating, scale 0 (no effect) to 100 (complete control)
Method in brief: as §2

rice [3] = assay: Test B pre-/postemergence herbicide test; type: in vivo, Oryza sativa; conditions: preemergence
Method in brief: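 Greenhouse pot assay with simultaneous preemergence (treated seed) and postemergence (2–18 cm seedlings) applications of surfactant-containing, non-phytotoxic solvent formulations. Response scored visually 13–15 days later on a 0–100 scale, 100 meaning complete control.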

cocklebur = assay: Test B pre-/postemergence herbicide test; type: in vivo, Xanthium strumarium; conditions: for Plant response rating, Cocklebur: preemergence; for Cocklebur plant response rating: postemergence, visual rating, scale 0 (no effect) to 100 (complete control)
Method in brief: as §4

barnyardgrass [4] = assay: Test B pre-/postemergence herbicide test; type: in vivo, Echinochloa crus-galli; conditions: for Plant response rating, Barnyardgrass: preemergence; for Barnyardgrass plant response rating: postemergence, visual rating, scale 0 (no effect) to 100 (complete control)
Method in brief: as §4

rice [5] = assay: Test B flooded paddy test; type: in vivo, Oryza sativa; conditions: 1000 g ai/ha, visual rating, scale 0 to 100 (0 no effect, 100 complete control), 13 to 15 days
Method in brief: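 Formulated test chemicals went onto postemergence plants measuring 2 to 18 cm, at one to four leaves. For the paddy assay, species had reached two leaves. Scoring took place 13–15 days later by eye, relative to untreated plants, using 0 for no effect up to 100 for full control.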

wheat = assay: Test B postemergence herbicide test; type: in vivo, Triticum aestivum; set-up: key to Wheat plant response rating: 0 = no effect, 100 = complete control; conditions: postemergence, 500 g ai/ha; visual rating, scale 0 (no effect) to 100 (complete control)
Method in brief: as §3

pigweed = assay: Test B pre-/postemergence herbicide test; type: in vivo, Amaranthus retroflexus; conditions: for Plant response rating, Pigweed: preemergence; for Pigweed plant response rating: postemergence, visual rating, scale 0 (no effect) to 100 (complete control)
Method in brief: as §1

[6] = 500 g ai/ha, visual rating 0-100, 0 no effect, 100 complete control
[7] = 125 g ai/ha, 0 to 100 scale, 0 is no effect, 100 is complete control

C=CCN(C)C(=O)c1cccc(NC(=O)c2cc(C(C)(C)C)nn2CC)n1 [Compound 163]
90: Plant response rating, Crabgrass, Large (large crabgrass; [6]) | Plant response rating, Velvetleaf (velvetleaf; [6]) | Plant response rating, Barnyardgrass (barnyardgrass [4]; [6]) | Plant response rating, Pigweed (pigweed; [7])
60: Plant response rating, Crabgrass, Large (large crabgrass; [7]) | Plant response rating, Morningglory (morningglory; [7]) | Cocklebur plant response rating (cocklebur; 500 g ai/ha) | Plant response rating, Barnyardgrass (barnyardgrass [4]; [7]) | Rice plant response rating (rice [5]) | Pigweed plant response rating (pigweed; 125 g ai/ha)
20: Crabgrass, Large plant response rating (large crabgrass; 125 g ai/ha) | Plant response rating, Foxtail, Giant (giant foxtail; [7])
100: Plant response rating, Lambsquarters (lambsquarters; [6]) | Plant response rating, Pigweed (pigweed; [6])
40: Plant response rating, Corn (corn; [6]) | Crabgrass, Large plant response rating (large crabgrass; 500 g ai/ha) | Velvetleaf plant response rating (velvetleaf; 125 g ai/ha) | Foxtail, Giant plant response rating (giant foxtail; 500 g ai/ha) | Surinam Grass plant response rating (Surinam grass; 500 g ai/ha)
80: Lambsquarters plant response rating (lambsquarters; 500 g ai/ha) | Plant response rating, Lambsquarters (lambsquarters; [7]) | Velvetleaf plant response rating (velvetleaf; 500 g ai/ha) | Plant response rating, Foxtail, Giant (giant foxtail; [6]) | Ducksalad plant response rating (ducksalad) | Plant response rating, Rice (rice [3]; [6]) | Plant response rating, Rice (rice [3]; [7]) | Pigweed plant response rating (pigweed; 500 g ai/ha)
10: Oat, Wild plant response rating (wild oat; 125 g ai/ha) | Blackgrass plant response rating (blackgrass; 125 g ai/ha) | Cocklebur plant response rating (cocklebur; 125 g ai/ha) | Wheat plant response rating (wheat)
0: Corn plant response rating (corn; 125 g ai/ha) | Corn plant response rating (corn; 500 g ai/ha) | Plant response rating, Corn (corn; [7]) | Foxtail, Giant plant response rating (giant foxtail; 125 g ai/ha) | Morningglory plant response rating (morningglory; 125 g ai/ha) | Morningglory plant response rating (morningglory; 500 g ai/ha) | Surinam Grass plant response rating (Surinam grass; 125 g ai/ha) | Barnyardgrass plant response rating (barnyardgrass [4]; 125 g ai/ha) | Barnyardgrass plant response rating (barnyardgrass [4]; 500 g ai/ha)
70: Sedge, Umbrella plant response rating [1] | Plant response rating, Velvetleaf (velvetleaf; [7]) | Plant response rating, Morningglory (morningglory; [6]) | Barnyardgrass plant response rating (barnyardgrass [2]) | Plant response rating, Surinam Grass (Surinam grass; [6]) | Plant response rating, Cocklebur (cocklebur; [6]) | Plant response rating, Cocklebur (cocklebur; [7])
30: Oat, Wild plant response rating (wild oat; 500 g ai/ha)
50: Lambsquarters plant response rating (lambsquarters; 125 g ai/ha) | Plant response rating, Surinam Grass (Surinam grass; [7]) | Blackgrass plant response rating (blackgrass; 500 g ai/ha)
